Several values for one entry are separate records, joined by “and”; a condition that tells them apart may be missing. Identical values can stand only once.
Columns and labels:
[1] = target: T1, Rat NHE3 (Rattus norvegicus, UniProt P26433); assay: Cell-based NHE3 activity under prompt conditions (OK cells, BCECF pH recovery), rat NHE3; conditions: prompt conditions; for IC50: read-out: Prompt Rat NHE3 pIC50 (converted)
T1 construct: expressed in transfected cells; host or cells: Opossum kidney (OK) cells (ATCC), electroporation
T1 sequence (P26433 29-831): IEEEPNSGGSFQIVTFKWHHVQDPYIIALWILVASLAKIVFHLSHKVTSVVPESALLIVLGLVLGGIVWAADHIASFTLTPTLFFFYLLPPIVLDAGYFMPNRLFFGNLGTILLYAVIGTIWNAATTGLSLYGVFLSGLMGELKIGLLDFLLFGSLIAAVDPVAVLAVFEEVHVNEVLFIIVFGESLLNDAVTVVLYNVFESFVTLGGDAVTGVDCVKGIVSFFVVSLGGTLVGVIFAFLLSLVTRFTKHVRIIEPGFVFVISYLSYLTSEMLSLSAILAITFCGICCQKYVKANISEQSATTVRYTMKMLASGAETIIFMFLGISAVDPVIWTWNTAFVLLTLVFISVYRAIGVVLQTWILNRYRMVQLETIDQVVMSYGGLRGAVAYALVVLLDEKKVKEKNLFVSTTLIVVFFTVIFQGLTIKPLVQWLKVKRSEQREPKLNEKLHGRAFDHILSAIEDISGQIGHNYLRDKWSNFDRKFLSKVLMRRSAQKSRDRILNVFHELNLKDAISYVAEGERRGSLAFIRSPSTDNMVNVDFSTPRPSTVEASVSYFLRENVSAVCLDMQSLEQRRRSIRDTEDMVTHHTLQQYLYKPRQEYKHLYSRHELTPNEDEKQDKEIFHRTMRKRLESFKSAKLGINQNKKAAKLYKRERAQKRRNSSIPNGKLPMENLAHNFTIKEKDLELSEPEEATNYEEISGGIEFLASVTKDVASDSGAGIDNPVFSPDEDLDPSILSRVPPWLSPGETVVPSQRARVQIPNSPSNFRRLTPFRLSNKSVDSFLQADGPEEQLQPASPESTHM
How it was run: (§1)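 Cells (OK line, electroporated with rat or human NHE3) are washed in NaCl-HEPES pH 7.4, then dye-loaded 30 min at room temperature with 5 μM BCECF-AM in NH4Cl buffer.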

[2] = target: T2, Human NHE3 (Homo sapiens, UniProt P48764); assay: Cell-based NHE3 activity under prompt conditions (OK cells, BCECF pH recovery), human NHE3; conditions: prompt conditions
T2 construct: expressed in transfected cells; host or cells: Opossum kidney (OK) cells (ATCC), electroporation
T2 sequence (P48764 26-834): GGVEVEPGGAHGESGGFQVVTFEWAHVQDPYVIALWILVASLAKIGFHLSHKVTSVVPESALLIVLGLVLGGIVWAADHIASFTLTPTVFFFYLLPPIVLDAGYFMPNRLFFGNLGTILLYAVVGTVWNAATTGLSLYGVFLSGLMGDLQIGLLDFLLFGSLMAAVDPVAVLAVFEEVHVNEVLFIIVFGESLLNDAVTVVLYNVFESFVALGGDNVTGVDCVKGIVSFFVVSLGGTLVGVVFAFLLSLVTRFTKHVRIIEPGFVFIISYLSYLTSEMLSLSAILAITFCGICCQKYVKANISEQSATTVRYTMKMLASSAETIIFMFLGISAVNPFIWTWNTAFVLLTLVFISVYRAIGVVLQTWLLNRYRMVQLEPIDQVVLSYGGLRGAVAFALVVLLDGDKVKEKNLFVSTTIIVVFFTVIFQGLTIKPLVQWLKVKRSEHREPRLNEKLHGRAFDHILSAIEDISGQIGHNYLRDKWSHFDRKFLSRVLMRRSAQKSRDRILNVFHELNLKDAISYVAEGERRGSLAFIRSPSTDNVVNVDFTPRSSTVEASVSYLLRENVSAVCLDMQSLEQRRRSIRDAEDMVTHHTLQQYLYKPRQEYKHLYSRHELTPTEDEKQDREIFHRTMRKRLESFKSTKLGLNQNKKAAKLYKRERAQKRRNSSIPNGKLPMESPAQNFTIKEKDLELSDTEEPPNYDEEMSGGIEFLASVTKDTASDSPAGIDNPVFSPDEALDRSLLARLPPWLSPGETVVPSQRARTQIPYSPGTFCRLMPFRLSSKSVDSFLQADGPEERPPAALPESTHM
How it was run: as §1

[3] = tested on: absorption of sodium from the intestinal lumen; assay: Inhibition of intestinal sodium absorption: urinary sodium (uNa) 16 h after single oral dose in rats; format: in vivo, rat; conditions: oral gavage, 16 h post-dose
How it was run: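 Eight-week-old Sprague-Dawley rats (n=6) given single oral gavage of compound or water vehicle in the late afternoon, then kept in metabolic cages with chow and water ad libitum. Urine collected over 16 h; sodium quantified by ion chromatography and expressed as % of vehicle mean, compared by one-way ANOVA with Dunnett's test.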

[4] = tested on: absorption of sodium from the intestinal lumen; assay: Fecal form score (FFS) 16 h after oral dose in rats; format: in vivo, rat; conditions: oral gavage, 16 h post-dose, scale 1-5
How it was run: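 Eight-week-old Sprague-Dawley rats (n=6) dosed by oral gavage with compound or water vehicle between 4 and 5 PM, then housed in metabolic cages with food and water ad libitum. At 16 h, fecal form scored 1 (normal pellet) to 5 (liquid streams) by two observers; group mean reported.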

[5] = tested on: phosphorus and calcium levels in the urine of rats; assay: Urinary excretion of phosphate and calcium in rats (16 h overnight urine); format: in vivo, rat; conditions: rats, oral gavage, 16 h post-dose

Structure (SMILES) | Prompt Rat NHE3 pIC50 [1] | Prompt Human NHE3 pIC50 [2] | IC50 ([2]; read-out: Prompt Human NHE3 pIC50 (converted)) [nM] | Urine Na % of control ([3]; dose 10 mg/kg) [%] | Fecal Form Score average ([4]; dose 10 mg/kg) | Urine P % of control ([5]; dose 10 mg/kg) [%] | Urine Na % of control ([3]; dose 3 mg/kg) [%] | Fecal Form Score average ([4]; dose 3 mg/kg) | Urine P % of control ([5]; dose 3 mg/kg) [%] | Urine Na % of control ([3]; dose 30 mg/kg) [%] | Fecal Form Score average ([4]; dose 30 mg/kg) | Urine P % of control ([5]; dose 30 mg/kg) [%] | IC50 [1] [nM] | Urine Na % of control ([3]; dose 1 mg/kg) [%] | Fecal Form Score average ([4]; dose 1 mg/kg) | Urine P % of control ([5]; dose 1 mg/kg) [%]
CN1Cc2c(Cl)cc(Cl)cc2[C@H](c2cccc(S(=O)(=O)NCCOCCOCCOCCNC(=O)COCC(=O)NCCOCCOCCOc3cccc(-c4nc(NC(=N)N)nc5ccc(Cl)cc45)c3)c2)C1 [compound 25] | 6.85 | 6.60 |  | 87 | 1 | 150 |  |  |  |  |  |  |  |  |  | 
NCCOCCOCCOc1ccc(-c2nc(N=C(N)N)nc3ccc(Cl)cc23)cc1 [compound 11] | 6.95 | 6.80 |  | 60 | 1 | 64 |  |  |  | 29 | 2 | 96 |  |  |  | 
CN1Cc2c(Cl)cc(Cl)cc2C(c2cccc(NC(=O)[C@H](O)[C@@H](O)[C@H](O)[C@H](O)CO)c2)C1 (stereo in doubt) [compound 3] |  | 7.60 |  |  |  |  |  |  |  |  |  |  | 39.8 | 41 | 1 | 57
CCCCCCCCCCC(=O)NC(CCC(=O)NCCOCCOCCNS(=O)(=O)c1cccc([C@@H]2CN(C)Cc3c(Cl)cc(Cl)cc32)c1)(CCC(=O)NCCOCCOCCNS(=O)(=O)c1cccc([C@@H]2CN(C)Cc3c(Cl)cc(Cl)cc32)c1)CCC(=O)NCCOCCOCCNS(=O)(=O)c1cccc([C@@H]2CN(C)Cc3c(Cl)cc(Cl)cc32)c1 [compound 94] | <5.00 | 5.60 |  | 67 | 1 | 66 |  |  |  |  |  |  |  |  |  | 
CN1Cc2c(Cl)cc(Cl)cc2[C@H](c2cccc(S(=O)(=O)NCCOCCOCCOCCNC(=O)c3cc(C(=O)NCCOCCOCCOCCNS(=O)(=O)c4cccc([C@@H]5CN(C)Cc6c(Cl)cc(Cl)cc65)c4)cc(C(=O)NCCOCCOCCOCCNS(=O)(=O)c4cccc([C@@H]5CN(C)Cc6c(Cl)cc(Cl)cc65)c4)c3)c2)C1 [compound 56] | 6.90 | 7.00 |  | 15 | 2 | 50 |  |  |  |  |  |  |  |  |  | 
NS(=O)(=O)c1ccc(O[C@H]2c3ccccc3C[C@@H]2N2CCCCC2)cc1 (racemic) [compound 38] |  |  | 2510 | 101 | 1 | 120 |  |  |  |  |  |  | 3160 |  |  | 
CN1Cc2c(Cl)cc(Cl)cc2[C@H](c2cccc(S(=O)(=O)NCCOCCOCCNC(=O)NCCCN(CCCNC(=O)NCCOCCOCCNS(=O)(=O)c3cccc([C@@H]4CN(C)Cc5c(Cl)cc(Cl)cc54)c3)CCCNC(=O)NCCOCCOCCNS(=O)(=O)c3cccc([C@@H]4CN(C)Cc5c(Cl)cc(Cl)cc54)c3)c2)C1 [compound 77] | 6.25 | 7.35 |  | 17 | 4 | 41 | 36 | 2 | 79 |  |  |  |  | 80 | 2 | 82
COCCNS(=O)(=O)c1cccc(C2CN(C)Cc3c(Cl)cc(Cl)cc32)c1 (centres unmarked) [compound 2] | 6.70 | 6.50 |  | 115 | 1 | 80 |  |  |  |  |  |  |  |  |  | 
NCCOCCOCCOCCN1CCN(c2ccc(-c3nc(N=C(N)N)nc4ccc(Cl)cc34)cc2)CC1 [compound 18] | 7.25 and 6.90 | 7.35 and 6.90 |  | 74 | 1 | 142 |  |  |  | 41 | 1 | 109 |  |  |  | 
CN1Cc2c(Cl)cc(Cl)cc2[C@H](c2cccc(S(=O)(=O)NCCOCCOCCOCCNC(=O)CCC(N)(CCC(=O)NCCOCCOCCOCCNS(=O)(=O)c3cccc([C@@H]4CN(C)Cc5c(Cl)cc(Cl)cc54)c3)CCC(=O)NCCOCCOCCOCCNS(=O)(=O)c3cccc([C@@H]4CN(C)Cc5c(Cl)cc(Cl)cc54)c3)c2)C1 [compound 90] | 7.20 | 7.85 |  | 38 | 5 | 20 | 30 | 1 | 58 |  |  |  |  | 76 | 1 | 65
N=C(N)Nc1nc(-c2cccc(S(=O)(=O)NCCOCCOCCN)c2)c2cc(Cl)ccc2n1 [compound 7] | 6.30 | 7.20 |  | 76 | 1 | 90 |  |  |  |  |  |  |  |  |  | 

The next lines start with results.

Prompt Rat NHE3 pIC50 [1] | Prompt Human NHE3 pIC50 [2] | IC50 ([2]; read-out: Prompt Human NHE3 pIC50 (converted)) [nM] | Structure (SMILES) | Urine Na % of control ([3]; dose 10 mg/kg) [%] | Fecal Form Score average ([4]; dose 10 mg/kg) | Urine P % of control ([5]; dose 10 mg/kg) [%] | Urine Na % of control ([3]; dose 3 mg/kg) [%] | Fecal Form Score average ([4]; dose 3 mg/kg) | Urine P % of control ([5]; dose 3 mg/kg) [%] | Urine Na % of control ([3]; dose 30 mg/kg) [%] | Fecal Form Score average ([4]; dose 30 mg/kg) | Urine P % of control ([5]; dose 30 mg/kg) [%] | IC50 [1] [nM] | Urine Na % of control ([3]; dose 1 mg/kg) [%] | Fecal Form Score average ([4]; dose 1 mg/kg) | Urine P % of control ([5]; dose 1 mg/kg) [%]
<5.00 | 6.55 |  | O=C(NCCCCNC(=O)NCCOCCOCCNC(=O)Nc1cccc(O[C@H]2c3ccccc3C[C@@H]2N2CCCCC2)c1)NCCOCCOCCNC(=O)Nc1cccc(O[C@H]2c3ccccc3C[C@@H]2N2CCCCC2)c1 [compound 126] | 93 | 1 | 94 |  |  |  |  |  |  |  |  |  | 
5.60 | 6.90 |  | CN1Cc2c(Cl)cc(Cl)cc2[C@H](c2cccc(S(=O)(=O)NCCOCCOCCNC(=O)CCC(CCC(=O)NCCOCCOCCNS(=O)(=O)c3cccc([C@@H]4CN(C)Cc5c(Cl)cc(Cl)cc54)c3)(CCC(=O)NCCOCCOCCNS(=O)(=O)c3cccc([C@@H]4CN(C)Cc5c(Cl)cc(Cl)cc54)c3)NC(=O)N(C)C)c2)C1 [compound 129] |  |  |  | 16 | 2 | 48 |  |  |  |  |  |  | 
7.50 | 7.40 |  | CN(C)CC(=O)NC(CCC(=O)N(C)CCOCCOCCNS(=O)(=O)c1cccc([C@@H]2CN(C)Cc3c(Cl)cc(Cl)cc32)c1)(CCC(=O)N(C)CCOCCOCCNS(=O)(=O)c1cccc([C@@H]2CN(C)Cc3c(Cl)cc(Cl)cc32)c1)CCC(=O)N(C)CCOCCOCCNS(=O)(=O)c1cccc([C@@H]2CN(C)Cc3c(Cl)cc(Cl)cc32)c1 [compound 176] |  |  |  | 73 | 1 | 92 |  |  |  |  |  |  | 
7.35 | 8.13 |  | CN1Cc2c(Cl)cc(Cl)cc2[C@H](c2cccc(S(=O)(=O)NCCOCCOCCNC(=O)NCCC(N)(CCNC(=O)NCCOCCOCCNS(=O)(=O)c3cccc([C@@H]4CN(C)Cc5c(Cl)cc(Cl)cc54)c3)CCNC(=O)NCCOCCOCCNS(=O)(=O)c3cccc([C@@H]4CN(C)Cc5c(Cl)cc(Cl)cc54)c3)c2)C1 [compound 168] |  |  |  | 56 | 1 | 50 |  |  |  |  |  |  | 
8.00 | 7.77 |  | CN(C)[C@H]1Cc2c(Cl)cc(Cl)cc2[C@@H]1Oc1ccc(S(=O)(=O)NCCOCCOCCNC(=O)CCC(C)(CCC(=O)NCCOCCOCCNS(=O)(=O)c2ccc(O[C@H]3c4cc(Cl)cc(Cl)c4C[C@@H]3N(C)C)cc2)NC(=O)CCC(=O)O)cc1 [compound 179] |  |  |  | 40 | 1 | 66 |  |  |  |  |  |  | 

— patent publication US20240366589A1, “NHE3-BINDING COMPOUNDS AND METHODS FOR INHIBITING PHOSPHATE TRANSPORT” (Ardelyx, Inc., priority 2013, published 2024)
